Columns and labels:
Assay type in all cases: cell-based
KMS-11 cells = assay: MTS cell viability assay, KMS-11 cells; conditions: Homo sapiens, 72 hours incubation
Procedure: (§1) About 2000-5000 of U266 cells, REH cells, K562 cells, KMS-11 cells, RPMI-8226 cells and MM. 1S cells were incubated with RBC-2008 in 384 well assay plates at 37° C., 5% CO2 for 72 hours. An amount of 5 μl of CellTiter 96® AQueous One Solution Reagent (MTS assay reagent) from Promega was added to each well and incubated for 3 hours. Absorbance at 492 nm was recorded by Envision Multilabel Reader. The IC50 curves were plotted and the IC50 values were calculated using the GraphPad Prism 4 program based on sigmoidal dose-response equation. […] 1S cells respectively (FIG. 8).

U266 cells = assay: MTS cell viability assay, U266 cells; conditions: Homo sapiens, U-266, 72 hours incubation
Procedure: as §1

RPMI-8226 cells = assay: MTS cell viability assay, RPMI-8226 cells; conditions: Homo sapiens, 72 hours incubation
Procedure: as §1

REH cells = assay: MTS cell viability assay, REH cells; conditions: Homo sapiens, 72 hours incubation
Procedure: as §1

K562 cells = assay: MTS cell viability assay, K562 cells; conditions: Homo sapiens, 72 hours incubation
Procedure: The effects of RBC-2008 on the viability of human tumor cell were assessed in an MTS assay. K562 cells were incubated with RBC-2008 in 384 well assay plates at 37° C., 5% CO2 for 72 hours. 5 μl of CellTiter 96® AQueous One Solution Reagent (MTS assay reagent) from Promega was added to each well and incubated for 3 hours. Absorbance at 492 nm was recorded using an Envision Multilabel Reader. The IC50 curves were plotted and the IC50 values were calculated using the GraphPad Prism 4 program based on a sigmoidal dose-response equation (FIG. 5).
as §1

MM. 1S cells = assay: MTS cell viability assay, MM. 1S cells; conditions: Homo sapiens, MM1.S, 72 hours incubation
Procedure: as §1

IC50 (U266 cells): 14.5 µM
IC50 (RPMI-8226 cells): 3.8 µM
IC50 (K562 cells): 13.1 µM
SMILES: O=C(NO)c1ccc(Cn2sc3ccccc3c2=O)cc1 [RBC-2008]
IC50 (KMS-11 cells): 2500 nM
IC50 (REH cells): 1800 nM
IC50 (MM. 1S cells): 2100 nM

Source: US20170360761A1, “Selective Inhibition of HDAC6 and HDAC8, and Methods of Use Thereof” (Reaction Biology Corp., priority 2016, published 2017)
